This is an account of results in patent publication US20240317739A1, “NOVEL UREA DERIVATIVE COMPOUND AS RON INHIBITOR” (LG CHEM, LTD., priority 2021, published 2024).

Assay [1] addresses RON (Homo sapiens, UniProt Q04912). The assay can be described thus: Evaluation of inhibitory activity against RON (TR-FRET). The class given is biochemical. As to conditions: TR-FRET kinase assay, RON protein. On the procedure:
In order to measure the inhibitory activity of each of the compounds of Examples against RON, the IC50 of each of the compounds was measured using a Time-Resolved Fluorescence Energy Transfer Chemistry (TR-FRET).
Specifically, the compound was prepared to a concentration of 1 mM with 100% DMSO and was diluted 10 times in a stepwise manner through 3-fold dilution. 2 ul of the compound diluted in a stepwise manner was added to a 96-well-plate containing 48 ul of a 1×kinase reaction buffer (50 mM HEPES (pH 7.4), 0.01% Tween-20, 5 mM DTT, 0.5 mM Na3VO4, 2 mM EGTA, 10 mM MgCl2).
The RON protein was diluted to a concentration of 49.3 nM with an RON storage buffer (50 mM Tris-HCl (pH 7.5), 150 mM NaCl, 0.5 mM EDTA, 0.02% Triton X-100), and then diluted again to a concentration of 0.4 nM with a 1×kinase reaction buffer. As a substrate cocktail, a RON-specific substrate mixture (40 uM ULight-labeled Poly GT, 100 nM ATP) at a concentration 2 times the final reaction concentration.
(§1) Thereafter, a 384-well-plate was prepared, and 2.5 μl of each of the diluted compounds of Examples was added to a corresponding well of experimental group wells, and 2.5 μl of a 4% DMSO solution was dispensed into high control wells and low control wells.
(§2) Thereafter, 2.5 μL of 0.4 nM RON was dispensed into the high control wells and the experimental group wells, and 2.5 μL of a 1× kinase reaction buffer was added to the low control wells, and the RON and the reaction buffer were centrifuged at room temperature for 40 seconds at 1000 RPM, and then incubated at room temperature for 20 to 30 minutes. Then, 5 uL of a substrate cocktail (2×) was dispensed into all wells, centrifuged at room temperature for 40 seconds at 1000 RPM, and then incubated at room temperature for 60 minutes. Thereafter, 5 uL of 30 mM EDTA was added to all wells to terminate the reaction, and then incubated again at room temperature for 5 minutes. Thereafter, 5 uL of a 4× phosphotyrosine antibody (Perkin Elmer) containing europium was added to all wells, and then incubated at room temperature for 60 minutes. After the incubation, the 384-well-plate was read with a Vison plate reader. At this time, the excitation wavelength was 340 nm, and the emission wavelength was 620 nm and 665 nm. The IC50 value of the compound of each Example was derived using the GraphPd Prism7 program.
(TR-FRET usually uses a lanthanide donor and a delayed reading to cut background.)

For assay [2], the target named is cMET (Homo sapiens, UniProt P08581). Put plainly: Evaluation of inhibitory activity against MET (TR-FRET). The class given is biochemical. To be noted: TR-FRET kinase assay, cMET protein. The procedure:
In addition, in order to measure the enzyme activity inhibition for cMET, the evaluation was performed in the same manner as the enzyme activity inhibition measurement experiment for the RON.
Specifically, the compound was prepared to a concentration of 1 mM with 100% DMSO and was diluted 10 times in a stepwise manner through 3-fold dilution. 2 ul of the compound diluted in a stepwise manner was added to a 96-well-plate containing 48 ul of a 1× kinase reaction buffer (50 mM HEPES (pH 7.4), 0.05% BSA, 0.005% Tween-20, 1 mM DTT, 0.5 mM MnCl2, 20 mM MgCl2).
The cMET protein was diluted to a concentration of 263 nM with a cMET storage buffer (50 mM Tris-HCl (pH 7.5), 150 mM NaCl, 0.05% Brij35, 1 mM DTT, 10% Glycerol), and then diluted again to a concentration of 2 nM with a 1× kinase reaction buffer. As a substrate cocktail, a MET-specific substrate mixture (5 uM TK peptide, […]) at a concentration 2 times the final reaction concentration.
as §1
as §2, with “of 2” for “of 0.4”, “nM cMET” for “nM RON”, “of 90” for “of 30”, “The […]” for “The IC50”

Some results are limits rather than exact numbers.

RON, sequence (Q04912 25-1400, species assumed): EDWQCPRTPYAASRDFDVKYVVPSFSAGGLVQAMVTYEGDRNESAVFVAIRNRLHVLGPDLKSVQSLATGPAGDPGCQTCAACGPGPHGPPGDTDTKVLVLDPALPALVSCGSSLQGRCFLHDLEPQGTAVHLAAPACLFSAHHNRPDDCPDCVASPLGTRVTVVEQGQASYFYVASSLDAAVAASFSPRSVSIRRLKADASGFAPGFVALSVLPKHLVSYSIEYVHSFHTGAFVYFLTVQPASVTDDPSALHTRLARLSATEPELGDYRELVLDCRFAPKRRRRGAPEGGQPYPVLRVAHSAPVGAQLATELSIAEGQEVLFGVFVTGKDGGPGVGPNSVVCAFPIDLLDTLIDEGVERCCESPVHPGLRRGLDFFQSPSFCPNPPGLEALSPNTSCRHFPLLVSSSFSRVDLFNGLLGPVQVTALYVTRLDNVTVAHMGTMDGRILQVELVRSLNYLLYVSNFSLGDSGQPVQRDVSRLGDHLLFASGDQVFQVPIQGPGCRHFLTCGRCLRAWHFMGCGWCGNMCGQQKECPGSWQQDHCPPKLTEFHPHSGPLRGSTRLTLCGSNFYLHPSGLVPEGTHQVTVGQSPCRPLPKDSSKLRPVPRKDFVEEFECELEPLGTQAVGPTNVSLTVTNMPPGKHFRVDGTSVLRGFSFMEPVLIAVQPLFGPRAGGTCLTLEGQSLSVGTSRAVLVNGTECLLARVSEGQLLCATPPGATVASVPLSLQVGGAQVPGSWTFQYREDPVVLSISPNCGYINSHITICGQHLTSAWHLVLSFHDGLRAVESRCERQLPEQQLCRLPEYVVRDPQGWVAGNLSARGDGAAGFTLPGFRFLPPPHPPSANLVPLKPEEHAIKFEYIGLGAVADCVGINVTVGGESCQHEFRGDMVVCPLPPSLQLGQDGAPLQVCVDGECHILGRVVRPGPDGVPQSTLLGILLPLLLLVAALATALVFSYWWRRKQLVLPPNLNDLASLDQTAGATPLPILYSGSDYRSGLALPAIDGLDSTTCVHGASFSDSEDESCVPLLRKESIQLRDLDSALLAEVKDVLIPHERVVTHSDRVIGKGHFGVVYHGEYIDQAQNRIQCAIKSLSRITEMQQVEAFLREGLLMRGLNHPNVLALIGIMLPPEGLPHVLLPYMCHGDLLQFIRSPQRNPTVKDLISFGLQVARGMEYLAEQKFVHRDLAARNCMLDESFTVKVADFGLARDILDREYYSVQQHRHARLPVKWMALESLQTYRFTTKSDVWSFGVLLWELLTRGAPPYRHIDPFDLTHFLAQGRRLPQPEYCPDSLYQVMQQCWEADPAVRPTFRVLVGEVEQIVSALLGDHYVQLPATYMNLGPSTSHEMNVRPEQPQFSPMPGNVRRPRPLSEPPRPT
cMET, sequence (P08581 25-1390): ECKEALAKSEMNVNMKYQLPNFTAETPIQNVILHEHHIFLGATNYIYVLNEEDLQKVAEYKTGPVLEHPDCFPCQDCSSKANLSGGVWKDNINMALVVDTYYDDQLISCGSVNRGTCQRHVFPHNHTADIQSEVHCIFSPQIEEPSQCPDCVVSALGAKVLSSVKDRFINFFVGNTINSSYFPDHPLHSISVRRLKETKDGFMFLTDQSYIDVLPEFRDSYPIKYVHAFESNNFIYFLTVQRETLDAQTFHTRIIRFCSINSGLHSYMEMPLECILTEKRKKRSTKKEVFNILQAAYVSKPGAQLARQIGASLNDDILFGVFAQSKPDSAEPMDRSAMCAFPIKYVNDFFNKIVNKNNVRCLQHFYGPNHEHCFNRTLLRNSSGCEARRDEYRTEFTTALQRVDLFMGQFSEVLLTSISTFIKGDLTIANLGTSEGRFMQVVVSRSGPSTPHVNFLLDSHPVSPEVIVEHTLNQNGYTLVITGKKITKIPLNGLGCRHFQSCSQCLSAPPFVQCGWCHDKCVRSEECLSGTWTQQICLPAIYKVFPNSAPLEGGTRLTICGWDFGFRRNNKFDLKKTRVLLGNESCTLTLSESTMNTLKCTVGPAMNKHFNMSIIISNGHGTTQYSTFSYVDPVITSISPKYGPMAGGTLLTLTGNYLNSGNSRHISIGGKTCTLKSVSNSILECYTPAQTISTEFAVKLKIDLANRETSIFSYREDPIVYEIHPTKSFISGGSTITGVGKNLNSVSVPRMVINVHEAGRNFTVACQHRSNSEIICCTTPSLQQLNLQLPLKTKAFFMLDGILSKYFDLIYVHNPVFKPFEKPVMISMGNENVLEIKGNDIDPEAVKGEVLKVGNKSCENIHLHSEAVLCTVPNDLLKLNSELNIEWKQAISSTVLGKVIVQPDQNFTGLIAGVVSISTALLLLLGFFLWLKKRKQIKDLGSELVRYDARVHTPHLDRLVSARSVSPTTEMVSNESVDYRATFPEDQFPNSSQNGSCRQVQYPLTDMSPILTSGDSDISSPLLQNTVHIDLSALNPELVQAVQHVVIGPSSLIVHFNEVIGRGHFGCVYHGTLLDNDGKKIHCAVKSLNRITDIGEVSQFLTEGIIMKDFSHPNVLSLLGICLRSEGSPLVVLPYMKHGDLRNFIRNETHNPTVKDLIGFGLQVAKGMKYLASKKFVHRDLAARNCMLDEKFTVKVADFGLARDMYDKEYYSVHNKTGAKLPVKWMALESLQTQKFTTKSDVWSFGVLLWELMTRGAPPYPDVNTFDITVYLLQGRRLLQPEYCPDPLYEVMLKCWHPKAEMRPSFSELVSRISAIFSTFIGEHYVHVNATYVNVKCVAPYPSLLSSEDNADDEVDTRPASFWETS

Turning to `CC(C)n1c(=O)[nH]c2nccc(Oc3ccc(NC(=O)c4cnn(-c5cc(C(F)(F)F)ccn5)c4C(F)(F)F)cc3F)c21` [Example 17, N-(3-fluoro-4-((1-isopropyl-2-oxo-2,3-dihydro-1H-imidazo[4,5-b]pyridine-7-yl)oxy)phenyl)-5-(trifluoromethyl)-1-(4-(trifluoromethyl)pyridine-2-yl)-1H-pyrazole-4-carboxamide], the results for the IC50 in assay [1] and in assay [2] were 50 to 500 nM and > 5000 nM, respectively.

Regarding `Cc1cccc(-n2ncc(C(=O)Nc3ccc(Oc4ccnc5[nH]c(=O)n(C(C)C)c45)c(F)c3)c2C(F)(F)F)n1` [Example 18, N-(3-fluoro-4-((1-isopropyl-2-oxo-2,3-dihydro-1H-imidazo[4,5-b]pyridine-7-yl)oxy)phenyl)-1-(6-methylpyridine-2-yl)-5-(trifluoromethyl)-1H-pyrazole-4-carboxamide], the IC50 in assay [1] is < 50 nM; in assay [2], 500 to 5000 nM.

As to `CC(C)n1c(=O)[nH]c2nccc(Oc3ccc(NC(=O)c4cnn(-c5ncccc5Br)c4C(F)(F)F)cc3F)c21` [Example 19, 1-(3-bromopyridine-2-yl)-N-(3-fluoro-4-((1-isopropyl-2-oxo-2,3-dihydro-1H-imidazo[4,5-b]pyridine-7-yl)oxy)phenyl)-5-(trifluoromethyl)-1H-pyrazole-4-carboxamide], the IC50 is < 50 nM in assay [1] and 500 to 5000 nM in assay [2].

Regarding `CC(C)n1c(=O)[nH]c2nccc(Oc3ccc(NC(=O)c4cnn(-c5nccc6ccccc56)c4C(F)(F)F)cc3F)c21` [Example 20, N-(3-fluoro-4-((1-isopropyl-2-oxo-2,3-dihydro-1H-imidazo[4,5-b]pyridine-7-yl)oxy)phenyl)-1-(isoquinoline-1-yl)-5-(trifluoromethyl)-1H-pyrazole-4-carboxamide], the IC50 was < 50 nM in assay [1] and 500 to 5000 nM in assay [2].

Take `CC(C)n1c(=O)[nH]c2nccc(Oc3ccc(NC(=O)c4cnn(-c5ccc(F)cn5)c4C(F)(F)F)cc3F)c21` [Example 21, N-(3-fluoro-4-((1-isopropyl-2-oxo-2,3-dihydro-1H-imidazo[4,5-b]pyridine-7-yl)oxy)phenyl)-1-(5-fluoropyridine-2-yl)-5-(trifluoromethyl)-1H-pyrazole-4-carboxamide]: the IC50 in assay [1] is < 50 nM; in assay [2], > 5000 nM.

Turning to `CC(C)n1c(=O)[nH]c2nccc(Oc3ccc(NC(=O)c4cnn(-c5cccc(C(F)(F)F)n5)c4C(F)(F)F)cc3F)c21` [Example 22, N-(3-fluoro-4-((1-isopropyl-2-oxo-2,3-dihydro-1H-imidazo[4,5-b]pyridine-7-yl)oxy)phenyl)-5-(trifluoromethyl)-1-(6-(trifluoromethyl)pyridine-2-yl)-1H-pyrazole-4-carboxamide], the IC50 in assay [1] is 50 to 500 nM; in assay [2], > 5000 nM.

As for `CC(C)n1c(=O)[nH]c2nccc(Oc3ccc(NC(=O)c4cnn(-c5cccnc5)c4C(F)(F)F)cc3F)c21` [Example 23, N-(3-fluoro-4-((1-isopropyl-2-oxo-2,3-dihydro-1H-imidazo[4,5-b]pyridine-7-yl)oxy)phenyl)-1-(pyridine-3-yl)-5-(trifluoromethyl)-1H-pyrazole-4-carboxamide], the 50% inhibitory concentration (IC50) in assay [1] is < 50 nM; in assay [2], 500 to 5000 nM.

`CC(C)n1c(=O)[nH]c2nccc(Oc3ccc(NC(=O)c4cnn(-c5ccncc5)c4C(F)(F)F)cc3F)c21` [Example 24, N-(3-fluoro-4-((1-isopropyl-2-oxo-2,3-dihydro-1H-imidazo[4,5-b]pyridine-7-yl)oxy)phenyl)-1-(pyridine-4-yl)-5-(trifluoromethyl)-1H-pyrazole-4-carboxamide]: the IC50 in assay [1] is < 50 nM; in assay [2] it was 500 to 5000 nM.

On to `CC(C)n1c(=O)[nH]c2nccc(Oc3ccc(NC(=O)c4cnn(-c5ncccn5)c4C(F)(F)F)cc3F)c21` [Example 25, N-(3-fluoro-4-((1-isopropyl-2-oxo-2,3-dihydro-1H-imidazo[4,5-b]pyridine-7-yl)oxy)phenyl)-1-(pyrimidine-2-yl)-5-(trifluoromethyl)-1H-pyrazole-4-carboxamide], for which the IC50 was < 50 nM in assay [1] and 500 to 5000 nM in assay [2].

For `Cc1ccnc(-n2ncc(C(=O)Nc3ccc(Oc4ccnc5[nH]c(=O)n(C(C)C)c45)c(F)c3)c2C(F)(F)F)n1` [Example 26, N-(3-fluoro-4-((1-isopropyl-2-oxo-2,3-dihydro-1H-imidazo[4,5-b]pyridine-7-yl)oxy)phenyl)-1-(4-methylpyrimidine-2-yl)-5-(trifluoromethyl)-1H-pyrazole-4-carboxamide], the IC50 in assay [1] is < 50 nM; in assay [2], 500 to 5000 nM.

Regarding `CC(C)n1c(=O)[nH]c2nccc(Oc3ccc(NC(=O)c4cnn(-c5ccncn5)c4C(F)(F)F)cc3F)c21` [Example 27, N-(3-fluoro-4-((1-isopropyl-2-oxo-2,3-dihydro-1H-imidazo[4,5-b]pyridine-7-yl)oxy)phenyl)-1-(pyrimidine-4-yl)-5-(trifluoromethyl)-1H-pyrazole-4-carboxamide], the results for the IC50 in assay [1] and in assay [2] were < 50 nM and 500 to 5000 nM, respectively.

For the compound `COc1cccnc1-n1ncc(C(=O)Nc2ccc(Oc3ccnc4[nH]c(=O)n(C(C)C)c34)c(F)c2)c1C(F)(F)F` [Example 28, N-(3-fluoro-4-((1-isopropyl-2-oxo-2,3-dihydro-1H-imidazo[4,5-b]pyridine-7-yl)oxy)phenyl)-1-(3-methoxypyridine-2-yl)-5-(trifluoromethyl)-1H-pyrazole-4-carboxamide], the IC50 in assay [1] was < 50 nM; in assay [2], 500 to 5000 nM.

In the case of `CCc1cccnc1-n1ncc(C(=O)Nc2ccc(Oc3ccnc4[nH]c(=O)n(C(C)C)c34)c(F)c2)c1C(F)(F)F` [Example 29, 1-(3-ethylpyridine-2-yl)-N-(3-fluoro-4-((1-isopropyl-2-oxo-2,3-dihydro-1H-imidazo[4,5-b]pyridine-7-yl)oxy)phenyl)-5-(trifluoromethyl)-1H-pyrazole-4-carboxamide], the IC50 in assay [1] is < 50 nM; in assay [2], 500 to 5000 nM.

For the compound `CCc1ccnc(-n2ncc(C(=O)Nc3ccc(Oc4ccnc5[nH]c(=O)n(C(C)C)c45)c(F)c3)c2C(F)(F)F)c1` [Example 30, 1-(4-ethylpyridine-2-yl)-N-(3-fluoro-4-((1-isopropyl-2-oxo-2,3-dihydro-1H-imidazo[4,5-b]pyridine-7-yl)oxy)phenyl)-5-(trifluoromethyl)-1H-pyrazole-4-carboxamide], the IC50 in assay [1] fell in the range of 50 to 500 nM; in assay [2], 500 to 5000 nM.

Consider `CC(C)n1c(=O)[nH]c2nccc(Oc3ccc(NC(=O)c4cnn(-c5cc(C6CC6)ccn5)c4C(F)(F)F)cc3F)c21` [Example 31, 1-(4-cyclopropylpyridine-2-yl)-N-(3-fluoro-4-((1-isopropyl-2-oxo-2,3-dihydro-1H-imidazo[4,5-b]pyridine-7-yl)oxy)phenyl)-5-(trifluoromethyl)-1H-pyrazole-4-carboxamide], for which the values for the concentration for half-maximal inhibition (IC50) in assay [1] and in assay [2] were 50 to 500 nM and 500 to 5000 nM, respectively.

The term IC50 denotes the concentration at which inhibition is half-maximal. Read a low IC50 as greater potency.
